{"source": "paper PMC5732813", "about": "“Novel piplartine-containing ruthenium complexes: synthesis, cell growth inhibition, apoptosis induction and ROS production on HCT116 cells” (Oncotarget, 2017)", "assay_type_in_all_cases": "cell-based", "key": {"[1]": {"tested_on": "HCT116 (human colon carcinoma)", "assay": "Cytotoxic activity, alamar blue assay, HCT116", "from_the_text": "(§1) HCT116 (human colon carcinoma), HepG2 (human hepatocellular carcinoma), HSC-3 (human oral squamous cell carcinoma), SCC-4 (human oral squamous cell carcinoma), SCC-9 (human oral squamous cell carcinoma), HL-60 (human promyelocytic leukemia), K-562 (human chronic myelogenous leukemia), B16-F10 (murine melanoma), MRC-5 (human lung fibroblast), WT SV40 MEF (wild-type immortalized mouse embryonic fibroblast) and BAD KO SV40 MEF (BAD gene knockout immortalized mouse embryonic fibroblast) cell lines were obtained from the American Type Culture Collection (ATCC, Manassas, VA, USA) and cultured in RPMI-1640 medium (Gibco-BRL, Gaithersburg, MD, USA) with 10% fetal bovine serum (Life, Carlsbad, CA, USA), 2 mM L-glutamine (Vetec Química Fina, Duque de Caxias, RJ, Brazil) and 50 μg/mL gentamycin (Life, Carlsbad, CA, USA). Adherent cells were collected by treatment with 0.25% trypsin EDTA solution (Gibco-BRL, Gaithersburg, MD, USA). All cell lines were cultured in flasks at 37°C in 5% CO2 and sub-cultured every 3-4 days to maintain exponential growth.\n(§2) Cell viability was quantified using the alamar blue assay, according to Ahmed et al.. Cells were inserted in 96-well plates for all experiments (7 x 10^4 cells/mL for adherent cells or 3 x 10^5 cells/mL for suspended cells in 100 μL of medium). […] Negative controls received the vehicle that was used for diluting the compounds tested."}, "[2]": {"tested_on": "HL-60 (human promyelocytic leukemia)", "assay": "Cytotoxic activity, alamar blue assay, HL-60", "from_the_text": "as §1, §2"}, "[3]": {"tested_on": "MRC-5 (human lung fibroblast)", "assay": "Cytotoxic activity, alamar blue assay, MRC-5 non-cancer cells", "settings": "Homo sapiens, MRC5, 72 h", "from_the_text": "as §1, §2"}, "[4]": {"tested_on": "PBMC (human peripheral blood mononuclear cells)", "assay": "Cytotoxic activity, alamar blue assay, PBMC non-cancer cells", "settings": "Homo sapiens, PBMC, 72 h", "method": "PBMCs were washed and resuspended at a concentration of 3 x 10^5 cells/mL in RPMI 1640 medium with 20% fetal bovine serum, 2 mM glutamine and 50 μg/mL gentamycin at 37°C with 5% CO2. […] The Research Ethics Committee of the Oswaldo Cruz Foundation (Salvador, Bahia, Brazil) approved the experimental protocol (# 031019/2013). All participants signed a written informed consent to participate in the study.\nas §2"}, "HCT116 cells": {"tested_on": "HCT116 cells", "assay": "Gene expression analysis by qPCR array (TaqMan Array Human Molecular Mechanisms of Cancer)", "settings": "HCT116, 12 h, DOX 1 μM, PL 10 μM, 1 2.5 μM, 2 5 μM, negative control RQ = 1.0", "method": "HCT116 cells were plated in bottles tissue culture (7x10^4 cells/mL). After 12h of incubation with the complexes, total RNA was isolated from the cells using the RNeasy Plus mini kit (Qiagen, Hilden, Germany) according to the manufacturer’s instructions. The RNA was evaluated by fluorimetry (QuBit™, Life Technologies, Camarillo, CA, EUA). RNA reverse transcription was performed using Superscript VILO™ (Invitrogen Corporation, Waltham, MA, USA). A 96-well plate TaqMan® Array Human Molecular Mechanisms of Cancer (ID 4418806, Applied Biosystems™, Foster City, CA, EUA) was used for the gene expression study by qPCR. The reactions were conducted in the ABI ViiA7 (Applied Biosystems™, Foster City, CA, EUA). The cycle conditions comprised 2 min at 50 °C, 20 s at 95 °C, then 40 cycles of 3 s at 95 °C and 30 s at 60 °C. […] The GAPDH, 18S and HPRT1 genes were used for normalization. All experiments were performed in DNase/RNase free conditions."}}, "note": "Several values for one entry are separate records, joined by “and”; a condition that tells them apart may be missing. Identical values can stand only once.", "data": [{"smiles": "COc1cc(/C=C/C(=O)N2CCC=CC2=O)cc(OC)c1OC", "note": "[Piplartine]", "values": [{"measurement": "Selectivity index (SI)", "setting": "[1]; SI = IC50[MRC-5]/IC50[HCT116]", "result": 2.7}, {"measurement": "Selectivity index (SI)", "setting": "[1]; SI = IC50[PBMC]/IC50[HCT116]", "result": 5.3}, {"measurement": "Selectivity index (SI)", "setting": "[2]; SI = IC50[MRC-5]/IC50[HL-60]", "result": 1.3}, {"measurement": "Selectivity index (SI)", "setting": "[2]; SI = IC50[PBMC]/IC50[HL-60]", "result": 2.6}, {"measurement": "IC50", "setting": "[3]", "result": 17.3, "unit": "µM"}, {"measurement": "IC50", "setting": "[4]", "result": 34.2, "unit": "µM"}, {"measurement": "RQ ABL1", "setting": "HCT116 cells", "result": 1.144}, {"measurement": "RQ AKT1", "setting": "HCT116 cells", "result": 1.285}, {"measurement": "RQ AKT2", "setting": "HCT116 cells", "result": 1.068}, {"measurement": "RQ APC", "setting": "HCT116 cells", "result": 1.236}, {"measurement": "RQ BAX", "setting": "HCT116 cells", "result": 2.160}, {"measurement": "RQ BCAR1", "setting": "HCT116 cells", "result": 0.705}, {"measurement": "RQ BCL2L1", "setting": "HCT116 cells", "result": 0.822}, {"measurement": "RQ BCL2L11", "setting": "HCT116 cells", "result": 1.536}, {"measurement": "RQ BID", "setting": "HCT116 cells", "result": 0.528}, {"measurement": "RQ BRAF", "setting": "HCT116 cells", "result": 1.512}, {"measurement": "RQ CASP8", "setting": "HCT116 cells", "result": 0.915}, {"measurement": "RQ CASP9", "setting": "HCT116 cells", "result": 1.065}, {"measurement": "RQ CCND3", "setting": "HCT116 cells", "result": 1.144}, {"measurement": "RQ CCNE1", "setting": "HCT116 cells", "result": 1.418}, {"measurement": "RQ CDC42", "setting": "HCT116 cells", "result": 2.542}, {"measurement": "RQ CDK2", "setting": "HCT116 cells", "result": 0.722}, {"measurement": "RQ CDK4", "setting": "HCT116 cells", "result": 0.873}, {"measurement": "RQ CDKN1A", "setting": "HCT116 cells", "result": 2.847}, {"measurement": "RQ CDKN1B", "setting": "HCT116 cells", "result": 1.545}, {"measurement": "RQ CRK", "setting": "HCT116 cells", "result": 0.381}, {"measurement": "RQ CTNNB1", "setting": "HCT116 cells", "result": 1.026}, {"measurement": "RQ DVL1", "setting": "HCT116 cells", "result": 0.913}, {"measurement": "RQ E2F1", "setting": "HCT116 cells", "result": 0.764}, {"measurement": "RQ ELK1", "setting": "HCT116 cells", "result": 0.625}, {"measurement": "RQ ERBB2", "setting": "HCT116 cells", "result": 1.273}, {"measurement": "RQ FAS", "setting": "HCT116 cells", "result": 1.371}, {"measurement": "RQ FGF2", "setting": "HCT116 cells", "result": 0.854}, {"measurement": "RQ GRB2", "setting": "HCT116 cells", "result": 1.219}, {"measurement": "RQ GSK3B", "setting": "HCT116 cells", "result": 1.249}, {"measurement": "RQ GUSB", "setting": "HCT116 cells", "result": 5.2}, {"measurement": "RQ HRAS", "setting": "HCT116 cells", "result": 0.928}, {"measurement": "RQ ITGB1", "setting": "HCT116 cells", "result": 0.784}, {"measurement": "RQ KRAS", "setting": "HCT116 cells", "result": 0.133}, {"measurement": "RQ MAPK1", "setting": "HCT116 cells", "result": 1.098}, {"measurement": "RQ MAPK8", "setting": "HCT116 cells", "result": 0.887}, {"measurement": "RQ MAPK14", "setting": "HCT116 cells", "result": 1.009}, {"measurement": "RQ MDM2", "setting": "HCT116 cells", "result": 0.901}, {"measurement": "RQ MYC", "setting": "HCT116 cells", "result": 0.271}, {"measurement": "RQ NFKB1", "setting": "HCT116 cells", "result": 0.870}, {"measurement": "RQ NFKB2", "setting": "HCT116 cells", "result": 0.818}, {"measurement": "RQ NRAS", "setting": "HCT116 cells", "result": 0.600}, {"measurement": "RQ PIK3CA", "setting": "HCT116 cells", "result": 0.910}, {"measurement": "RQ RB1", "setting": "HCT116 cells", "result": 1.314}, {"measurement": "RQ RELA", "setting": "HCT116 cells", "result": 1.240}, {"measurement": "RQ RHOA", "setting": "HCT116 cells", "result": 0.979}, {"measurement": "RQ SRC", "setting": "HCT116 cells", "result": 1.076}, {"measurement": "RQ TCF3", "setting": "HCT116 cells", "result": 0.774}, {"measurement": "RQ TGFB1", "setting": "HCT116 cells", "result": 0.947}, {"measurement": "RQ TGFBR1", "setting": "HCT116 cells", "result": 0.545}, {"measurement": "RQ VEGFA", "setting": "HCT116 cells", "result": 1.245}, {"measurement": "RQ BCL2", "setting": "HCT116 cells; listed as PL", "result": "1.1 and 1.049"}, {"measurement": "RQ CCND1", "setting": "HCT116 cells; listed as PL", "result": "0.7 and 0.669"}, {"measurement": "RQ CDH1", "setting": "HCT116 cells; listed as PL", "result": "2.5 and 2.494"}, {"measurement": "RQ CDKN2A", "setting": "HCT116 cells; listed as PL", "result": "1.6 and 1.575"}, {"measurement": "RQ CYCS", "setting": "HCT116 cells; listed as PL", "result": "1.0 and 0.954"}, {"measurement": "RQ EGFR", "setting": "HCT116 cells; listed as PL", "result": "1.2 and 1.173"}, {"measurement": "RQ FADD", "setting": "HCT116 cells; listed as PL", "result": "0.4 and 0.369"}, {"measurement": "RQ FN1", "setting": "HCT116 cells; listed as PL", "result": "2.0 and 1.952"}, {"measurement": "RQ FOS", "setting": "HCT116 cells; listed as PL", "result": "31.0 and 30.985"}, {"measurement": "RQ FYN", "setting": "HCT116 cells; listed as PL", "result": "1.7 and 1.675"}, {"measurement": "RQ FZD1", "setting": "HCT116 cells; listed as PL", "result": "1.0 and 0.953"}, {"measurement": "RQ IGF1R", "setting": "HCT116 cells; listed as PL", "result": "2.1 and 2.082"}, {"measurement": "RQ ITGA2B", "setting": "HCT116 cells; listed as PL", "result": "3.0 and 2.963"}, {"measurement": "RQ ITGAV", "setting": "HCT116 cells; listed as PL", "result": "1.0 and 0.993"}, {"measurement": "RQ JUN", "setting": "HCT116 cells; listed as PL", "result": "3.8 and 3.837"}, {"measurement": "RQ KDR", "setting": "HCT116 cells; listed as PL", "result": "8.3 and 8.270"}, {"measurement": "RQ MAP2K1", "setting": "HCT116 cells; listed as PL", "result": "0.8 and 0.759"}, {"measurement": "RQ MAP3K5", "setting": "HCT116 cells; listed as PL", "result": "0.6 and 0.609"}, {"measurement": "RQ MAPK3", "setting": "HCT116 cells; listed as PL", "result": "1.7 and 1.726"}, {"measurement": "RQ MAX", "setting": "HCT116 cells; listed as PL", "result": "3.1 and 3.051"}, {"measurement": "RQ NFKBIA", "setting": "HCT116 cells; listed as PL", "result": "2.0 and 1.989"}, {"measurement": "RQ PIK3R1", "setting": "HCT116 cells; listed as PL", "result": "2.4 and 2.352"}, {"measurement": "RQ PTEN", "setting": "HCT116 cells; listed as PL", "result": "0.5 and 0.501"}, {"measurement": "RQ PTK2", "setting": "HCT116 cells; listed as PL", "result": "0.6 and 0.616"}, {"measurement": "RQ PTK2B", "setting": "HCT116 cells; listed as PL", "result": "2.3 and 2.265"}, {"measurement": "RQ RAC1", "setting": "HCT116 cells; listed as PL", "result": "0.7 and 0.731"}, {"measurement": "RQ RAF1", "setting": "HCT116 cells; listed as PL", "result": "0.6 and 0.574"}, {"measurement": "RQ SHC1", "setting": "HCT116 cells; listed as PL", "result": "0.2 and 0.243"}, {"measurement": "RQ SMAD4", "setting": "HCT116 cells; listed as PL", "result": "0.9 and 0.942"}, {"measurement": "RQ SOS1", "setting": "HCT116 cells; listed as PL", "result": "0.9 and 0.851"}, {"measurement": "RQ SPP1", "setting": "HCT116 cells; listed as PL", "result": "1.3 and 1.338"}, {"measurement": "RQ TGFBR2", "setting": "HCT116 cells; listed as PL", "result": "1.2 and 1.177"}, {"measurement": "RQ TP53", "setting": "HCT116 cells; listed as PL", "result": "1.2 and 1.182"}]}]}
